Results as given in paper PMC11215771 (Journal of Medicinal Chemistry, 2024).

Key:
[1] = molecular target: T1, hBACE1 D289N (proteolytic inactive mutant) in HEK293T cells (Homo sapiens, UniProt P56817, D289N); assay: Staining of transfected HEK293T cells, confocal imaging: BACE1 D289N; assay type: cell-based
T1 construct: expressed in transfected cells; host or cells: HEK293T
Protocol: Next, we explored the performance of the new Alexa-C3 compounds in living cells. Because of the rather hydrophilic properties, we exclusively targeted the cell membrane. To prevent intracellular accumulation, we first performed stainings at 4 °C arresting ATP-dependent endocytosis. […] All of the constructs were tagged at the C-terminus with either EGFP or mCherry to visualize subcellular expression. […] With these experiments, we want to exclude that a lack of staining is caused by an impaired accessibility of the protein by Alexa-C3 compounds. […] We then tested samples with BACE1 expression after fixation of the cells with paraformaldehyde (PFA).
(D) All conjugates were also probed on cells fixed with 4% paraformaldehyde (PFA) for 15 min prior to staining. […] Scale bars represent 5 μm (A–D) and 20 μm (E). […] Samples were excited at 488, 561, and 633 nm, respectively.
HEK293T cells (ATCC accession number CRL-11268) were maintained in Dulbecco's modified Eagle's medium (Sigma-Aldrich D6046) with 1g/L glucose, supplemented with 10% FCS (Merck) and 1% penicillin/streptomycin (PAA). CHO-K1 cells (ATCC #CCL-61) were maintained in modified phenol red free RPMI-1640 medium (Sigma-Aldrich, R7509), supplemented with 2 mM L-glutamine (Sigma-Aldrich, G7513), and 10% FCS (Merck). Cells were cultured at 37 °C in a 5% CO2 atmosphere. The following plasmids were used for transfection with the amount of DNA indicated (per 35 mm Petri dish): hBACE1 (NM_012104.4), 50 ng for single molecule recordings, 200 ng otherwise; hBACE1 fused to EGFP or mCherry, 75 ng; hBACE1 D289N fused to EGFP or mCherry, 75 ng; hBACE1 D289N, 200–400 ng; hBACE2 (NM_012105.3) fused to EGFP, 75 ng; hCathepsinD (HsCD00438327), Harvard PlasmID, 75 ng. Transfection was performed 24 h after plating using jetPEI (Polyplus) according to the manufacturer’s protocol.
For labeling, we plated HEK293T cells onto sterile 18 mm 1.5H borosilicate coverslips (VWR), coated with poly-D-lysine (Sigma). […]

endogenous BACE1 = molecular target: T2, endogenous BACE1 (Mus musculus, UniProt P56818); assay: Staining of endogenous BACE1 in brain slices; settings: 250 nM probe, BACE1+/+ vs BACE1–/– mice
T2 construct: from tissue; host or cells: mouse brain cryosections (hippocampus, cerebellum), C57BL/6J background, P16
Excerpt: Areas with high expression such as the hippocampal MFB[38] or cerebellar Purkinje cells[39],[40] are readily distinguished. However, all primary anti-BACE1 antibodies tested in our lab produced a significant background in samples of BACE1 knockout mice.[20],[23] […] We wondered if our new Alexa-C3 compounds could outperform existing probes in endogenous tissue. […] Close to the hilus, we depicted the MFB additionally at higher magnification (Figure 4B). […] From this set of data and from previous experiments using anti-BACE1 antibodies and SiR-BACE1 we calculated the ratio of the signal in the hilar region to the signal in the molecular layer (Figure 4C), since the molecular layer (red box in Figure 4C) is more affected by background fluorescence due to the relatively low BACE1 expression level.
(A) Images of the hippocampus depict the mossy fiber bundle (MFB) with high BACE1 expression with the intervening CA3 pyramidal cell layer (CA3) and proximal dentate gyrus (DG). […] The scale bar represents 200 μm. […]
For quantification of hippocampal BACE1 staining, mean intensities of the mossy fiber bundle were divided by the mean intensity of the molecular layer of the dentate gyrus. Mean intensities were calculated from rectangular regions of interest. In addition, analysis was performed on images of hippocampal BACE1 labeling with SiR-BACE1 recorded previously.[31]

[2] = molecular target: recombinant human BACE1 protein (amino acids 1–457, extracellular domain) (Homo sapiens, UniProt P56817); assay: Fluorescence correlation spectroscopy (FCS) with BACE1 ECD in solution
Chain of recombinant human BACE1 protein (amino acids 1–457, extracellular domain) (P56817 22-457): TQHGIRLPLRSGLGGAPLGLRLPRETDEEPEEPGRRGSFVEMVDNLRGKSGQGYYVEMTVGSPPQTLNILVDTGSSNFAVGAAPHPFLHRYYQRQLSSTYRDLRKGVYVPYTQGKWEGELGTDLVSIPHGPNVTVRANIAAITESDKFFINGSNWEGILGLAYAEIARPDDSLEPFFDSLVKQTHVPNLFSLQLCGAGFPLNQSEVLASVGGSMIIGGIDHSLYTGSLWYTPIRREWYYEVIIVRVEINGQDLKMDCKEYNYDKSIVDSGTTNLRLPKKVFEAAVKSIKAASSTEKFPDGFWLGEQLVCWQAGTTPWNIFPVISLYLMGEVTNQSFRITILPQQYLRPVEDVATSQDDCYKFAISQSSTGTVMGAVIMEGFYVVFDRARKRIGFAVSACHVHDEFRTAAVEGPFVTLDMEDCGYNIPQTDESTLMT

T2 sequence (P56818 46-501): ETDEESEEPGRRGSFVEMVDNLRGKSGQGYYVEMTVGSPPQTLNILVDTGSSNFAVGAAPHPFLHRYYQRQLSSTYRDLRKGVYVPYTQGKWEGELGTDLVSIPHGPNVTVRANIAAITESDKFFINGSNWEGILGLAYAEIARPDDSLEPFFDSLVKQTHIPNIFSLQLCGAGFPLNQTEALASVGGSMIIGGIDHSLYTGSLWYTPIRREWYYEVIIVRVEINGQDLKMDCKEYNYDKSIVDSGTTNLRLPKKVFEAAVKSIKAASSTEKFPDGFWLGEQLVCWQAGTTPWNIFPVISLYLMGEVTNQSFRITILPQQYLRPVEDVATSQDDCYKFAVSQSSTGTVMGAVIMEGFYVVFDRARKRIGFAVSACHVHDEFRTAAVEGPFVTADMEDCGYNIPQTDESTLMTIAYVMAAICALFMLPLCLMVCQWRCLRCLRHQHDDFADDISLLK
T1 sequence (P56817 46-501 D289N): as the sequence (P56818 46-501) above, with S6P, I162V, I165L, T180S, A182V, D244N, V340I, A393L, H443Q counted along it

SMILES	staining of BACE1 D289N [1]	labeling of endogenous BACE1 in brain slices (endogenous BACE1)	additional slow diffusing component with BACE1 ECD ([2]; 100 nM probe with BACE1 ECD, pH 5)	EC50 [2] [nM]	diffusion time constant of the second (BACE1-bound, slow) population ([2]; 100 nM probe with BACE1 ECD, pH 5, mean ± SEM, n = 3 preparations) [μs]
C[C@@H](NC(=O)c1cc(C(=O)N[C@@H](Cc2ccccc2)[C@H](O)CNC2CC2)cc(N(C)S(=O)(=O)CCCNC(=O)CCCCCC2(C)C(/C=C/C=C/C=C3/N(CCCS(=O)(=O)O)c4ccc(S(=O)(=O)O)cc4C3(C)C)=[N+](CCCS(=O)(=O)[O-])c3ccc(S(=O)(=O)O)cc32)c1)c1ccccc1 (stereo partly shown)	not labeled	unsuccessful	no additional slow component was observed		
C[C@@H](NC(=O)c1cc(C(=O)N[C@@H](Cc2ccccc2)[C@H](O)CNC2CC2)cc(N(C)S(=O)(=O)CCCNC(=O)c2ccc(C(=O)O)c(-c3c4ccc(=N)c(S(=O)(=O)O)c-4oc4c(S(=O)(=O)O)c(N)ccc34)c2)c1)c1ccccc1 [2-(6-Amino-3-iminio-4,5-disulfo-3H-xanthen-9-yl)-4-((3-(N-(3-(((2S,3R)-4-(cyclopropylamino)-3-hydroxy-1-phenylbutan-2-yl)carbamoyl)-5-(((R)-1-phenylethyl)carbamoyl)phenyl)-N-methylsulfamoyl)propyl)carbamoyl)benzoate]	no appreciable fluorescence	labeled BACE1 in a typical pattern		9.77	310 ± 10
